Assay results taken from patent publication US9206173B2, “Heterocyclic compounds for the treatment of stress-related conditions” (OTSUKA PHARMACEUTICAL CO., LTD., priority 2009, dated 2015).
Structures can show the parent of a compound that is named as a salt. Where two headings read alike, the source gives them in different places.

How the values were obtained:
human GPR10 [1] = target: T1, human GPR10 (Homo sapiens (Human), UniProt P49683); assay: Inhibitory activity on binding of [3H]-PrRP to GPR10 (HEK 293 cell membrane fraction)
Experimental: Inhibitory Activity on Binding of [^3H]-PrRP to GPR10
Human GPR10 receptor expressing human embryonic kidney cells, HEK 293 cells, were cultured in Dulbecco's Modified Eagle's medium supplemented with 10% fetal bovine serum and 1% penicilline-streptmycin at 37° C., in 5% carbon dioxide gas conditions. The medium was removed and the cells were recovered in a phosphate buffer to prepare a cell suspension. The cell suspension was homogenated on ice by an ultrasonic cell homogenizer (Microson™ type XL200) and centrifuged at 40,000 g for 10 minutes at 4° C. After the supernatant was discarded, Buffer A (20 mM HEPES, 10 mM EDTA, 1 μl/ml protease inhibiting cocktail, pH 7.4) was added to the pellet. The pellet was suspended by the ultrasonic cell homogenizer, then the suspension was centrifuged at 40,000 g, for 10 minutes at 4° C. After this operation was repeated once again, the supernatant was discarded, Buffer B (20 mM HEPES, 0.1 mM EDTA, pH 7.4) was added to the pellet, and the pellet was suspended by the ultrasonic homogenizer. This was stored at a freezer of −80° C. as a cell membrane fraction until use in a binding test.
To each well of a 96-well plate, 150 μl of assay buffer (20 mM HEPES, 10 mM EDTA, 1 μl/ml protease inhibiting agent cocktail, pH 7.4), 20 μl of cell membrane fraction, 10 μl of test compound and [^3H]-PrRP (final concentration 1 nM) were added and incubated at room temperature for 90 minutes. After completion of the reaction, using a cell harvester, the cell-membrane fraction sample product was filtered under aspiration by a glass fiber filter plate (Unifilter; GF/B) previously treated with 0.5% polyethylene imine. The filter was washed with a 50 mM Tris hydrochloric acid buffer (pH 7.4) three times. After the filter was dried in a dryer (50° C.) for about 3 hours, 40 μl of liquid scintillation cocktail (MicroScint-O) was added to each well and radio activity was measured by a scintillation counter (Packard Topcount). The radio activity in the presence of an excessive amount of non-labeled PrRP (final concentration: 100 nM) was regarded as non-specific binding.
The binding inhibition rate was calculated based on calculating formula: 100−(radio activity when a compound is added−radio activity of non-specific binding)÷(radio activity when a solvent is added−radio activity of non-specific binding)×100.
An IC50 value was calculated based on the concentration dependent reaction using a non-linear analysis program and a Ki value was calculated using Cheng-Prussoff formula.

human GPR10 [2] = target: T1, human GPR10; assay: Antagonistic activity on PrRP-induced intracellular calcium mobilization in human GPR10-expressing HEK293 cells; type: cell-based; conditions: PrRP 1 nM-induced intracellular calcium mobilization, Fluo-8
Experimental: Pharmacological Test 2 Antagonistic Activity on GPR10 Using Human GPR10-Expressing HEK293 Cells.
Antagonistic activity of test compounds on PrRP-induced intracellular calcium mobilization was evaluated using GPR10-expressing HEK293 cells.
HEK293 cells expressing human GPR10 were maintained in Dulbecco's Modified Eagles' medium supplemented with 10% fetal bovine serum, 1% penicillin-streptomycin and 20 mM HEPES at 37° C. in a 5% CO2 incubator. GPR10-expressing HEK293 cells were placed in poly-D-lysine coated 96-well culture plates and cultured for 18-24 hr before the test at a density of 3×10^4 cells/well. […] The cells were incubated with test compounds for 15 min at room temperature, and then PrRP (the final concentration, 1 nM) was added into the medium. The changes in intracellular calcium-dependent fluorescence were monitored using a fluorescence imaging plate reader (FDSS3000, Hamamatsu Photonics K.K.). Fluo-8 fluorescence was measured with excitation at 490 nm and emission at 520 nm. The calcium-dependent fluorescence intensity was calculated by subtracting basal intensity (average intensity for 30 sec before agonist stimulation) from peak intensity for 60 sec after PrRP-stimulation, and then IC50 values were determined by nonlinear curve-fitting program, GraphPad Prism 5.

[3] = [3H]-PrRP 1 nM, human GPR10-expressing HEK 293 cell membrane fraction, Ki from IC50 by Cheng-Prussoff formula

T1 sequence (P49683 whole entry): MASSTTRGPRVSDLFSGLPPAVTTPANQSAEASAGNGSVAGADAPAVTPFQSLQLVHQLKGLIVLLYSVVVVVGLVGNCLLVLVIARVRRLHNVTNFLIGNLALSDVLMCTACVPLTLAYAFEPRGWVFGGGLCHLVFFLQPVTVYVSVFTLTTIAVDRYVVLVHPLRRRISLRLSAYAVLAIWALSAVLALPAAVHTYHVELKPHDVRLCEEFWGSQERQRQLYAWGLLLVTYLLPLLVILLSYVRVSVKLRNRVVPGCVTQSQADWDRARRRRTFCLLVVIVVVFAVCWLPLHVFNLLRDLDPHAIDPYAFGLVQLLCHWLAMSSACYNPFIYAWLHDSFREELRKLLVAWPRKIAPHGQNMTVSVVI

| Ki (human GPR10 [1]; [3]) [nM] | Ki (human GPR10 [1]) [nM] | SMILES | IC50 (human GPR10 [2]) [nM] |
| --- | --- | --- | --- |
| 36 |  | C[C@H](Nc1nc2c(c(=O)n1N1CCOCC1)CN(C(=O)c1ccc(C#N)cc1)CC2)c1ccc(C(F)(F)F)cc1 [Example 2432, 4-{3-morpholin-4-yl-4-oxo-2-[(S)-1-(4-trifluoromethylphenyl)ethylamino]-3,5,7,8-tetrahydro-4H-pyrido[4,3-d]pyrimidine-6-carbonyl}benzonitrile hydrochloride] | 238 |
| 207 |  | C[C@H](Nc1nc2c(c(=O)n1N(C)C)CN(C(=O)COc1ccc(Cl)cc1)CC2)c1ccc(Cl)cc1 [Example 2431, 6-[2-(4-chlorophenoxy)acetyl]-2-[(S)-1-(4-chlorophenyl)ethylamino]-3-dimethylamino-5,6,7,8-tetrahydro-3H-pyrido[4,3-d]pyrimidin-4-one] | 3600 |
|  | 12 | COn1c(N[C@@H](C)c2ccc(C(F)(F)F)cc2)nc2c(c1=O)CN(C(=O)/C=C/c1ccc(Cl)cc1)CC2 [Example 2392, 6-[(E)-3-(4-chlorophenyl)acryloyl]-3-methoxy-2-[(S)-1-(4-trifluoromethylphenyl)ethylamino]-5,6,7,8-tetrahydro-3H-pyrido[4,3-d]pyrimidin-4-one] | 5790 |
| 23 |  | CC#CCn1c(N[C@@H](C)c2ccc(C(F)(F)F)cc2)nc2c(c1=O)CN(C(=O)c1ccc(OC)cc1)CC2 [Example 2448, 3-(2-butynyl)-6-(4-methoxybenzoyl)-2-[(S)-1-(4-trifluoromethylphenyl)ethylamino]-5,6,7,8-tetrahydro-3H-pyrido[4,3-d]pyrimidin-4-one] |  |
| 3 |  | COn1c(N[C@@H](C)c2ccc(Cl)cc2)nc2c(c1=O)CN(C(=O)c1cc3cccnc3s1)CC2 [Example 2495, 2-[(S)-1-(4-chlorophenyl)ethylamino]-3-methoxy-6-(thieno[2,3-b]pyridine-2-carbonyl)-5,6,7,8-tetrahydro-3H-pyrido[4,3-d]pyrimidin-4-one hydrochloride] |  |
| 56 |  | COn1c(N[C@@H](C)C2CCCCC2)nc2c(c1=O)CN(C(=O)c1ccc(C#N)cc1F)CC2 [Example 2469, 4-[2-((S)-1-cyclohexylethylamino)-3-methoxy-4-oxo-3,5,7,8-tetrahydro-4H-pyrido[4,3-d]pyrimidine-6-carbonyl]-3-fluorobenzonitrile] |  |
| 9 |  | C#CCCn1c(N[C@@H](C)c2ccc(C(F)(F)F)cc2)nc2c(c1=O)CN(C(=O)c1ccc(-n3ccnc3)cc1)CC2 [Example 2434, 3-(3-butynyl)-6-(4-imidazol-1-ylbenzoyl)-2-[(S)-1-(4-trifluoromethylphenyl)ethylamino]-5,6,7,8-tetrahydro-3H-pyrido[4,3-d]pyrimidin-4-one] |  |
| 41 |  | C#CCCn1c(N[C@@H](C)c2ccc(C(F)(F)F)cc2)nc2c(c1=O)CN(C(=O)c1ccc(C)cc1)CC2 [Example 2443, 3-(3-butynyl)-6-(4-methylbenzoyl)-2-[(S)-1-(4-trifluoromethylphenyl)ethylamino]-5,6,7,8-tetrahydro-3H-pyrido[4,3-d]pyrimidin-4-one] |  |
| 98 |  | COn1c(NCc2ccc(Cl)cc2)nc2c(c1=O)CN(C(=O)c1ccc(Cl)cc1)CC2 [Example 2462, 6-(4-chlorobenzoyl)-2-(4-chlorobenzylamino)-3-methoxy-5,6,7,8-tetrahydro-3H-pyrido[4,3-d]pyrimidin-4-one hydrochloride] |  |
| 8 |  | COn1c(N[C@@H](C)c2ccc(C(F)(F)F)cc2)nc2c(c1=O)CN(C(=O)c1ccc(C)c(F)c1)CC2 [Example 2457, 6-(3-fluoro-4-methylbenzoyl)-3-methoxy-2-[(S)-1-(4-trifluoromethylphenyl)ethylamino]-5,6,7,8-tetrahydro-3H-pyrido[4,3-d]pyrimidin-4-one] |  |
| 10 |  | COn1c(N[C@@H](C)c2ccc(C(F)(F)F)cc2)nc2c(c1=O)CN(C(=O)c1cc3occc3n1C)CC2 [Example 2465, 3-methoxy-6-(4-methyl-4H-furo[3,2-b]pyrrole-5-carbonyl)-2-[(S)-1-(4-trifluoromethylphenyl)ethylamino]-5,6,7,8-tetrahydro-3H-pyrido[4,3-d]pyrimidin-4-one] |  |
| 41 |  | CC#CCn1c(N[C@@H](C)c2ccc(C(F)(F)F)cc2)nc2c(c1=O)CN(C(=O)c1ccc(C)c(C)c1)CC2 [Example 2447, 3-(2-butynyl)-6-(3,4-dimethylbenzoyl)-2-[(S)-1-(4-trifluoromethylphenyl)ethylamino]-5,6,7,8-tetrahydro-3H-pyrido[4,3-d]pyrimidin-4-one] |  |
| 48 |  | COn1c(N[C@@H](C)c2ccc(C(F)(F)F)cc2)nc2c(c1=O)CN(C(=O)c1ccc(Cl)o1)CC2 [Example 2454, 6-(5-chloro-furan-2-carbonyl)-3-methoxy-2-[(S)-1-(4-trifluoromethylphenyl)ethylamino]-5,6,7,8-tetrahydro-3H-pyrido[4,3-d]pyrimidin-4-one] |  |
| 24 |  | COn1c(N[C@H](c2ccc(Cl)cc2)C(C)C)nc2c(c1=O)CN(C(=O)c1ccc3c(c1)CCC(=O)N3C)CC2 [Example 2487, 2-[(S)-1-(4-chlorophenyl)-2-methylpropylamino]-3-methoxy-6-(1-methyl-2-oxo-1,2,3,4-tetrahydro-quinoline-6-carbonyl)-5,6,7,8-tetrahydro-3H-pyrido[4,3-d]pyrimidin-4-one] |  |
| 245 |  | C#CCCn1c(N[C@@H](C)c2ccc(C(F)(F)F)cc2)nc2c(c1=O)CN(C(=O)c1nc3ccccc3[nH]1)CC2 [Example 2458, 6-(1H-benzoimidazole-2-carbonyl)-3-(3-butynyl)-2-[(S)-1-(4-trifluoromethylphenyl)ethylamino]-5,6,7,8-tetrahydro-3H-pyrido[4,3-d]pyrimidin-4-one] |  |
| 10 |  | COn1c(N[C@@H](C)c2ccc(C(F)(F)F)cc2)nc2c(c1=O)CN(C(=O)c1ccc3c(c1)OCCO3)CC2 [Example 2459, 6-(2,3-dihydrobenzo[1,4]dioxine-6-carbonyl)-3-methoxy-2-[(S)-1-(4-trifluoromethylphenyl)ethylamino]-5,6,7,8-tetrahydro-3H-pyrido[4,3-d]pyrimidin-4-one] |  |

| SMILES | Ki (human GPR10 [1]; [3]) [nM] | Ki (human GPR10 [1]) [nM] | IC50 (human GPR10 [2]) [nM] |
| --- | --- | --- | --- |
| COn1c(N[C@@H](C)c2ccc(C(F)(F)F)cc2)nc2c(c1=O)CN(C(=O)CSc1ccc(Cl)cc1)CC2 [Example 2390, 6-[2-(4-chlorophenylsulfanyl)acetyl]-3-methoxy-2-[(S)-1-(4-trifluoromethylphenyl)ethylamino]-5,6,7,8-tetrahydro-3H-pyrido[4,3-d]pyrimidin-4-one] | 8 |  | 1140 |
| COn1c(NC(c2ccc(Cl)cc2)C(C)C)nc2c(c1=O)CN(C(=O)c1ccc(Cl)cc1)CC2 (stereo not shown) [Example 2441, 6-(4-chlorobenzoyl)-2-[1-(4-chlorophenyl)-2-methylpropylamino]-3-methoxy-5,6,7,8-tetrahydro-3H-pyrido[4,3-d]pyrimidin-4-one] | 37 |  | 4490 |
| CC#CCn1c(N[C@@H](C)c2ccc(C(F)(F)F)cc2)nc2c(c1=O)CN(C(=O)c1cc3ccccn3n1)CC2 [Example 2411, 3-(2-butynyl)-6-(pyrazolo[1,5-a]pyridine-2-carbonyl)-2-[(S)-1-(4-trifluoromethylphenyl)ethylamino]-5,6,7,8-tetrahydro-3H-pyrido[4,3-d]pyrimidin-4-one hydrochloride] | 20 |  | 776 |
